“And” between values parts separate entries of the source, which are not always exact repeats. Identical values can stand only once. Like-named read-outs stand apart in the source and are kept apart here. Blank lines part the entries; values can stand above or below the compound they belong to.
Columns and labels:
GluA2-R607Q = target: T1, GluA2-R607Q (Rattus norvegicus, UniProt P19491); experiment: Off-target, oocytes, GluA2; type: cell-based; details: 1 µM compound; 100 µM glutamate
T1 construct: expressed in transfected cells; host or cells: Xenopus oocytes (cRNA injection)
T1 sequence (P19491 22-883, stated change not applied): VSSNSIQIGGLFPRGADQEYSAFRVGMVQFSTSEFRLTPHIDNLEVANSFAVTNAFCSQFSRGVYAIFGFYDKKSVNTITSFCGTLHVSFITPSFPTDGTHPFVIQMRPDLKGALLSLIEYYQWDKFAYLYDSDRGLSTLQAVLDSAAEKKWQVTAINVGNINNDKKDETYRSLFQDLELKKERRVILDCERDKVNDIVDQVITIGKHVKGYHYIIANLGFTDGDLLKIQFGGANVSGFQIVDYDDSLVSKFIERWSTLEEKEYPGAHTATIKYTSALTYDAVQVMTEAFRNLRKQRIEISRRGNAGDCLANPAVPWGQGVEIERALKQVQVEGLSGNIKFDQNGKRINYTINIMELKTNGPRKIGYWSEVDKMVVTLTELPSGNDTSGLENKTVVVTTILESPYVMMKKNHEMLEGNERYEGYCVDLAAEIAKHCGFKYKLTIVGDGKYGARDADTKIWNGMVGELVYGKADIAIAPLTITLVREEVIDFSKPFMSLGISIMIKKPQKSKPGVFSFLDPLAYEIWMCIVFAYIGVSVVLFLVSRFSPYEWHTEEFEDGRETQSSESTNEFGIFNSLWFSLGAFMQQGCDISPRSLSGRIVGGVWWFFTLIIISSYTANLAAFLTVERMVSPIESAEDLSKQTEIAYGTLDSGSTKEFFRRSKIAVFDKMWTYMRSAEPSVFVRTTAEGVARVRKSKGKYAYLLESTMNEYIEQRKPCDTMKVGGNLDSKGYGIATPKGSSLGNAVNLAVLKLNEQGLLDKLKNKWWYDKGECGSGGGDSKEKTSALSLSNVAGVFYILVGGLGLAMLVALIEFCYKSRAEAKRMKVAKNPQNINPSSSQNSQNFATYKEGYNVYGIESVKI
Experimental: Analysis of Off-target Actions
Compound (S)-(-)-2i was tested at 1 µM for actions at glycine-activated GluN1/GluN3A (human GluN1-F484A,T518L/GluN3A referred to a GluN1-FA,TL/GluN3A) and rat GluN1-4a/GluN3B in the presence of 0.5 µM CGP-78608. cRNA injection ratios for GluN1/GluN3 were 1:2. Compound (S)-(-)- 2i was also tested for actions at AMPA (rat GluA1, rat GluA2, human GluA3-L531Y), kainate (rat GluK2), nicotinic acetylcholine (rat α7 and α4β2, cRNA ratio 1:1), GABAA (rat α1β2γ2S, cRNA ratio 1:1:1), GABAC (rat ρ1), glycine (rat α1), and purinergic (human P2X) receptors expressed in Xenopus oocytes. cRNA encoding the receptor subunits was synthesized from linear template cDNA using the mMessage mMachine kit (Ambion). Oocytes were injected with 1-5 ng cRNA in a 50 nL volume and incubated in Barth's solution at 15°C for 2-5 days prior to recording. GluK2-expressing oocyte were incubated in 1 mg/ml (10 µM) concanavalin-A for 10 min prior to recording. The cDNAs encoding GABAC and glycine subunits were provided by Dr. D. Weiss (University of Texas Health Science Center at San Antonio). cDNAs encoding nicotinic acetylcholine receptor subunits were provided by Drs. […]
GABA. […] Responses in presence of test compound were expressed as a percent of control. […]

MDCK-MDR1 = system: MDCK-MDR1; set-up: method as in PMID 23909910; details: cited from earlier work
GluN1/GluN2B = target: T2, GluN1/GluN2B (Rattus norvegicus, UniProt Q00960); set-up: method as in PMID 23909910; details: reproduced for comparison; cited from earlier work
T2 construct: GluN2B (NM_012574.1), GluN2C (NM_012575.3), and GluN2D (NM_022797.2) were provided by; expressed in transfected cells; host or cells: Xenopus laevis oocytes (cRNA injection)
T2 sequence (Q00960 27-1482, other chains not shown): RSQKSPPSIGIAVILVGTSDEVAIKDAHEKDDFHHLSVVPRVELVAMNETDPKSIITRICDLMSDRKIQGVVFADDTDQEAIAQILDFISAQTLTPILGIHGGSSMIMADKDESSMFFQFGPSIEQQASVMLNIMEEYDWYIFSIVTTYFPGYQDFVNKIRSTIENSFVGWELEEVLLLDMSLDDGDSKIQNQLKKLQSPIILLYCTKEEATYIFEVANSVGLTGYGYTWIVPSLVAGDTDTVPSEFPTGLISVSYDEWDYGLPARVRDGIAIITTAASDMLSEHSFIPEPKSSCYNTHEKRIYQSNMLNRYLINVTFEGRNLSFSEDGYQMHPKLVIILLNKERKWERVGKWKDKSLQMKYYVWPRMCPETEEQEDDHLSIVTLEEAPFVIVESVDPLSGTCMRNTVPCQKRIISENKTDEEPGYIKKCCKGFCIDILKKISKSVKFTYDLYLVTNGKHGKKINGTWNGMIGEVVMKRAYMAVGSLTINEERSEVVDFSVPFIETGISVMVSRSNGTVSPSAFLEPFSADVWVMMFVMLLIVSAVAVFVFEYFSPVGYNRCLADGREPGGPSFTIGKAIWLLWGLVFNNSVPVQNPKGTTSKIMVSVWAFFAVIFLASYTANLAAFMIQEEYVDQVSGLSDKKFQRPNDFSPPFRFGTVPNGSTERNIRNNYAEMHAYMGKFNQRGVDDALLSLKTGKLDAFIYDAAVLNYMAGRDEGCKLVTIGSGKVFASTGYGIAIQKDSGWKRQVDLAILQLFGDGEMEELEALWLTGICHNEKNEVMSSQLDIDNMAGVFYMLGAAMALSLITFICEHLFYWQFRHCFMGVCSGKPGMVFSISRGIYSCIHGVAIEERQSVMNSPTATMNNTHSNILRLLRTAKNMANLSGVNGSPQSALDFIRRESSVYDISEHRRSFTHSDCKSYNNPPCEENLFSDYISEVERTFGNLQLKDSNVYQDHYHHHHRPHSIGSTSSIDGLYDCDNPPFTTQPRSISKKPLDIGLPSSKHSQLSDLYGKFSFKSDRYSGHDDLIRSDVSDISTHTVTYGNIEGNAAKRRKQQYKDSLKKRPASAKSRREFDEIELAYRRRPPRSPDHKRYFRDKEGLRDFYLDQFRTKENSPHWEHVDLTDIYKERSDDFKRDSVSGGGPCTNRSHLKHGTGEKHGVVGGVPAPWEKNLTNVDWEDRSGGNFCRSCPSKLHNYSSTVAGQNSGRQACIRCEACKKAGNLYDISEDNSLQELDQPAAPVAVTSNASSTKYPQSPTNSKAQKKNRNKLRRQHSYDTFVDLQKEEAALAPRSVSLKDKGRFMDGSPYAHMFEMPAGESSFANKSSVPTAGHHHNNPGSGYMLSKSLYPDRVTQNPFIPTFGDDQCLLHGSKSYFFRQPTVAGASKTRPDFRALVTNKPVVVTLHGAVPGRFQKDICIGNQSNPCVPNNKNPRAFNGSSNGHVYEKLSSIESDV

[1] = Mouse plasma and brain pharmacokinetics, IV administration; type: in vivo; details: 5 mg/kg IV; for concentration at 0.25 h / concentration at 1 h / concentration at 3 h: male, C57BL/6, mouse, intravenous, 5 mg/kg
Experimental: IACUC-approved protocols and animal welfare regulations outlined in the “Guide for the Care and Use of Laboratory Animals” were both followed during the pharmacokinetic evaluation of all compounds. In vivo analysis was performed by Pharmaron (IP administration, Irvine, CA) and Sai Life (IV administration, Hinjewadi Pune, Pune, India).
Nine male C57BL/6 mice were administered intravenously (IV) with solution formulation of prodrug at 5 mg/kg dose (5 mL/kg) in 5% […], 5% Solutol HS-15, and 90% saline. Blood samples (∼60 μL) were collected under light isoflurane anesthesia from a set of three mice at 0.25, 1, and 3 h. Plasma was harvested by centrifugation of blood and stored at −70 ± 10 °C until analysis. Immediately after the collection of blood, brain samples were collected from each mouse at respective time points. Brain samples were homogenized using ice-cold phosphate-buffered saline (pH 7.4), and homogenates were stored below −70 ± 10 °C until analysis. The total homogenate volume was 3 times that of the brain weight. The plasma and brain concentration–time data of compounds 2i were used for the pharmacokinetic analysis. Plasma and brain samples were quantified by the fit-for-purpose LC-MS/MS method (LLOQ: 2.06 ng/mL for plasma and 5.16 ng/mL for brain).

- % control GluA2-R607Q (GluA2-R607Q): 98 ± 0.85%
Compound: O=C(O)CC(F)(F)C(=O)N1N=C(c2c(-c3ccc(Cl)cc3)c3ccccc3[nH]c2=O)C[C@H]1c1ccc(Cl)cc1 [(S)-(−)-2i]

Compound: O=C(O)CCC(=O)N1N=C(c2c(-c3ccc(Cl)cc3)c3ccccc3[nH]c2=O)CC1c1ccc(Cl)cc1 (stereo not shown) [2a]
- Papp (MDCK-MDR1; cell-membrane permeability): 0.47 × 10^–6 cm/s
- P-glycoprotein (P-gp)-mediated efflux ratio (ER) (MDCK-MDR1): 55
- I 30 μM / I control GluN2B (GluN1/GluN2B): 44 ± 1.6 (2,8) %

- drop of plasma levels at 1 h [1]: ~10 fold
- brain calculated concentration, individual (Group 1-3) ([1]; 0.25 h): 17.9 ng/g and 13.1 ng/g
- brain calculated concentration, Mean ([1]; 0.25 h (15 min)): 14 ng/g
- plasma concentration, individual (Group 1-3) ([1]; 0.25 hr): 585 ng/mL and 766 ng/mL
- brain calculated concentration, individual (Group 1-3) ([1]; 1 h): BLQ and 6.18 ng/g
- plasma concentration, individual (Group 1-3) ([1]; 1 hr): 41.2 ng/mL and 101 ng/mL and 68.7 ng/mL
- brain calculated concentration, individual (Group 1-3) ([1]; 3 h): BLQ
- brain levels at 3 h ([1]; 3 h): BLQ
- plasma concentration, individual (Group 1-3) ([1]; 3 hr): 5.97 ng/mL and 10.2 ng/mL
- concentration at 0.25 h ([1]; brain, 0.25 h (15 min), read-out: brain calculated concentration, Mean): 13.9 ng/g
- concentration at 0.25 h ([1]; brain, 0.25 h, read-out: brain calculated concentration, individual (Group 1-3)): 10.8 ng/g
- concentration at 1 h ([1]; brain, 1 h, BLQ assumed to be 0.0, read-out: brain calculated concentration, Mean): 4.13 ng/g
- concentration at 1 h ([1]; brain, 1 h, read-out: brain calculated concentration, individual (Group 1-3)): 6.21 ng/g
- concentration at 0.25 h ([1]; plasma, 0.25 hr (15 min), read-out: plasma concentration, Mean): 642 ng/mL
- concentration at 0.25 h ([1]; plasma, 0.25 hr, read-out: plasma concentration, individual (Group 1-3)): 575 ng/mL
- concentration at 1 h ([1]; plasma, 1 hr, read-out: plasma concentration, Mean): 70.4 ng/mL
- concentration at 3 h ([1]; plasma, 3 hr, read-out: plasma concentration, Mean): 7.64 ng/mL
- concentration at 3 h ([1]; plasma, 3 hr, read-out: plasma concentration, individual (Group 1-3)): 6.78 ng/mL
Compound: O=C(O)CC(F)(F)C(=O)N1N=C(c2c(-c3ccc(Cl)cc3)c3ccccc3[nH]c2=O)CC1c1ccc(Cl)cc1 (stereo not shown) [2i]

From publication PMC10485906, “Development of a Dihydroquinoline–Pyrazoline GluN2C/2D-Selective Negative Allosteric Modulator of the N-Methyl-D-aspartate Receptor” (ACS Chemical Neuroscience, 2023)
